From paper PMC6494078, “Development of an HPLC-based guanosine monophosphate kinase assay and application to Plasmodium vivax guanylate kinase” (Analytical Biochemistry, 2019)

Legend:
Assay type in all cases: biochemical
[1] = target: T1, Plasmodium vivax guanylate kinase (PvGK) (Plasmodium vivax, UniProt A5K709); test: HPLC guanylate kinase assay, ATP saturation curve (sigmoidal, h = […]; apparent Kprime)
T1 construct: gene PVX_099895; full-length PvGK with an N-terminal hexa-histidine tag

[2] = target: T1, Plasmodium vivax guanylate kinase (PvGK); test: HPLC detection of product formed by purified enzyme
[3] = target: T1, Plasmodium vivax guanylate kinase (PvGK); test: HPLC guanylate kinase assay, GMP saturation curve (substrate inhibition)
[4] = target: T1, Plasmodium vivax guanylate kinase (PvGK); test: HPLC guanylate kinase inhibition assay, percent inhibition at […]; settings: read-out: % inhibition at 5 mM
[5] = target: T1, Plasmodium vivax guanylate kinase (PvGK); test: HPLC guanylate kinase inhibition assay, IC50 curve

T1 sequence (A5K709 entry or part of it): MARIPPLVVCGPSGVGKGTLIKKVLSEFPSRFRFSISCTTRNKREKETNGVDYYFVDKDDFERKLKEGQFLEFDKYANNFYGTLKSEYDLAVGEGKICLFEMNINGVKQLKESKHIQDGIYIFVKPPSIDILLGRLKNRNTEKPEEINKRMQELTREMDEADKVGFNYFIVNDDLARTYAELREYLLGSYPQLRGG

For `Nc1ncnc2c1ncn2[C@@H]1O[C@H](COP(=O)(O)OP(=O)(O)OP(=O)(O)O)[C@@H](O)[C@H]1O` [ATP], the Km [1] was 15.6 ± 2.07 µM.

With `Nc1nc2c(ncn2[C@@H]2O[C@H](COP(=O)(O)OP(=O)(O)O)[C@@H](O)[C@H]2O)c(=O)[nH]1` [GDP] the “HPLC detection of product formed by purified enzyme” value [2] was “used to study the kinetics of the forward reaction (forming ADP and GDP) catalyzed by PvGK”.

`Nc1nc(=O)c2ncn([C@@H]3O[C@H](COP(=O)(O)O)[C@@H](O)[C@H]3O)c2[nH]1` [GMP] was tested, and the “HPLC guanylate kinase assay, GMP saturation curve (substrate inhibition)” value [3] was “showed a decrease in initial velocity with increasing GMP concentrations, indicating strong substrate inhibition”.

Work on `O=c1ccc2ccc(O)c(O)c2o1` [compound 1, 7,8-dihydroxycoumarin] yielded an inhibition at 5000 µM [4] of 68%.

With `O=C(O)C1CSC2(C(=O)O)CCC(=O)N12` (centres unmarked) [compound 2, Compound 2] the IC50 [5] was 2700 µM.
